Data taken from ChEMBL document CHEMBL4483862, “Open-source discovery of chemical leads for next-generation chemoprotective antimalarials” (2018).

Test system: Plasmodium berghei
Assay: Luciferase/luciferin-expressing antifolate-resistant parasites were used to infect a culture of HepG2 cells that were pre-incubated with compounds. Infected hepatocytes emit light due to the luciferase reaction. Assay results are presented as the percent inhibition of light emission compared to control. […]
Type: functional
Conditions: sporozoite; for IC90: read-out: LUCIFERASE INFECTION ASSAY - IC90
[1] = read-out: LUCIFERASE INFECTION ASSAY - IC50

Row | SMILES | IC90 | IC50 [1] | also measured
1 | FC(F)(F)c1cccc(Nc2nccc3nc(-c4ccccc4Cl)[nH]c23)c1 | > 10 µM | – | IC50 (FFLUC_HILL_SLOPE 7.35, FFLUC_R_SQUARED 0.132, HEPG2TOX_HILL_SLOPE 0.352, HEPG2TOX_R_SQUARED 0.695, PBLUC_HILL_SLOPE 1.25, PBLUC_R_SQUARED 0.396, read-out: LUCIFERASE INFECTION ASSAY - IC50): 3.07 µM
2 | Cc1nc(SC(C)C(=O)c2c[nH]c3ccccc23)c2c(=O)n(C)c(=O)n(CC(C)C)c2n1 (stereo unspecified) | > 10 µM | – | IC50 (FFLUC_HILL_SLOPE 11.3, FFLUC_R_SQUARED 0.363, PBLUC_HILL_SLOPE 2.42, PBLUC_R_SQUARED 0.455, read-out: LUCIFERASE INFECTION ASSAY - IC50): 7.35 µM
3 | COc1ccc(OC)c(C(=O)c2oc3cc(NC(=O)C4CC4)ccc3c2C)c1 | 0.519 µM | 0.214 µM | –
4 | O=C(Nc1ccc(OC(F)(F)F)cc1)N1CCN(c2cc(C(F)(F)F)nc3ccccc23)CC1 | > 6.81 µM | > 6.81 µM | –
5 | O=C(Nc1cccc(Oc2cnccn2)c1)C(c1ccccc1)c1ccccc1 | > 10 µM | – | IC50 (PBLUC_HILL_SLOPE 11.4, PBLUC_R_SQUARED 0.171, read-out: LUCIFERASE INFECTION ASSAY - IC50): 8.47 µM
6 | Cc1cc(C(=O)CN2C(=O)NC3(CCCc4sccc43)C2=O)c(C)n1Cc1ccc2c(c1)OCO2 (stereo unspecified) | > 10 µM | – | IC50 (PBLUC_HILL_SLOPE 2.26, PBLUC_R_SQUARED 0.443, read-out: LUCIFERASE INFECTION ASSAY - IC50): 8.17 µM
7 | CCN(CC)c1ccc(NC(=O)c2c(F)cccc2F)c(N(CC)CC)n1 | > 8.77 µM | – | IC50 (PBLUC_HILL_SLOPE 1.91, PBLUC_R_SQUARED 0.469, read-out: LUCIFERASE INFECTION ASSAY - IC50): 5.46 µM
8 | Cc1c(C)c(C)c(S(=O)(=O)Oc2ccccc2N2CC(C)OC(C)C2)c(C)c1C (stereo unspecified) | > 7.9 µM | – | IC50 (PBLUC_HILL_SLOPE 5.73, PBLUC_R_SQUARED 0.021, read-out: LUCIFERASE INFECTION ASSAY - IC50): > 7.9 µM
9 | COc1ccc(Nc2cc(C)nc(-n3nc(C)cc3C)n2)cc1 | 4.19 µM | – | IC50 (HEPG2TOX_HILL_SLOPE 0.695, HEPG2TOX_R_SQUARED 0.68, PBLUC_HILL_SLOPE 2.57, PBLUC_R_SQUARED 0.661, read-out: LUCIFERASE INFECTION ASSAY - IC50): 1.78 µM
10 | c1cncc(Cn2cnc3cnc(Nc4cccnc4)cc32)c1 | > 10 µM | > 10 µM | –
11 | COc1ccc(-c2cnc3cnc(-c4cccc(NS(C)(=O)=O)c4)cn23)cn1 | 7.13 µM | 4.3 µM | –
12 | CC(C)(C)NC(=S)N/N=C/c1ccnc(SCc2ccc(Cl)cc2)n1 | > 8.38 µM | – | IC50 (PBLUC_HILL_SLOPE 1.91, PBLUC_R_SQUARED 0.389, read-out: LUCIFERASE INFECTION ASSAY - IC50): 5.71 µM
13 | O=C(NCC1(c2ccccc2)CCC1)c1ccc(Cn2nnc3ccccc32)cc1 | > 10 µM | > 10 µM | –
14 | Cc1ccc(-c2nn(-c3ccccc3)c3[nH]c(-c4ccccc4)cc(=O)c23)cc1 | > 10 µM | – | IC50 (FFLUC_HILL_SLOPE 0.301, FFLUC_R_SQUARED 0.0383, PBLUC_HILL_SLOPE 15, PBLUC_R_SQUARED 0.1, read-out: LUCIFERASE INFECTION ASSAY - IC50): 9.8 µM
15 | COc1ccccc1-c1ccc2ncc(-c3cccc(C(C)=O)c3)n2n1 | 8.88 µM | – | IC50 (HEPG2TOX_HILL_SLOPE 0.183, HEPG2TOX_R_SQUARED 0.285, PBLUC_HILL_SLOPE 2.88, PBLUC_R_SQUARED 0.586, read-out: LUCIFERASE INFECTION ASSAY - IC50): 4.14 µM
16 | O=C(COc1ccccc1C(=O)NCc1ccccc1)NC(c1ccc(F)cc1)c1cccs1 (stereo unspecified) | > 10 µM | 8.41 µM | –
17 | FC(F)(F)c1nc2ccccc2nc1-n1nccc1-c1ccc(Cl)cc1 | > 8.81 µM | – | IC50 (FFLUC_HILL_SLOPE 16.3, FFLUC_R_SQUARED 0.637, HEPG2TOX_HILL_SLOPE 7.13, HEPG2TOX_R_SQUARED 0.448, PBLUC_HILL_SLOPE 3.24, PBLUC_R_SQUARED 0.732, read-out: LUCIFERASE INFECTION ASSAY - IC50): 5.14 µM
18 | O=C(CN1CC=C(c2ccccc2)CC1)NC(c1ccccc1)c1ccccc1 | > 10 µM | > 10 µM | –
19 | CC(=O)C1C2C(=O)N(C(C)(C)C)C(=O)C2C2C=Cc3ccc4cccnc4c3N21 (stereo unspecified) | 6.42 µM | – | IC50 (HEPG2TOX_HILL_SLOPE 8.2, HEPG2TOX_R_SQUARED 0.867, PBLUC_HILL_SLOPE 4.87, PBLUC_R_SQUARED 0.475, read-out: LUCIFERASE INFECTION ASSAY - IC50): 4.09 µM
20 | CCOC(=O)c1cc(C#N)c(Sc2nnc(SCC3CC3)s2)nc1C(F)(F)F | > 7.39 µM | – | IC50 (HEPG2TOX_HILL_SLOPE 8.92, HEPG2TOX_R_SQUARED 0.488, read-out: LUCIFERASE INFECTION ASSAY - IC50): > 7.39 µM
21 | Cc1nn(-c2ccccc2)c2nc(-c3cccs3)cc(C(=O)N3CCc4ccccc43)c12 | > 10 µM | – | IC50 (FFLUC_HILL_SLOPE 2.26, FFLUC_R_SQUARED 0.632, PBLUC_HILL_SLOPE 0.862, PBLUC_R_SQUARED 0.727, read-out: LUCIFERASE INFECTION ASSAY - IC50): 4.63 µM
22 | COc1ccc(O)c(C(=O)c2cnc3cc4c(cc3c2)OCCO4)c1 | 1.21 µM | – | IC50 (HEPG2TOX_HILL_SLOPE 0.562, HEPG2TOX_R_SQUARED 0.791, PBLUC_HILL_SLOPE 0.753, PBLUC_R_SQUARED 0.781, read-out: LUCIFERASE INFECTION ASSAY - IC50): 0.0655 µM

Row | SMILES | IC90 | IC50 [1] | also measured
23 | Cc1ccc2c(Cl)c(C(=O)Nc3nonc3-c3ccccc3)sc2c1 | 8.14 µM | 7.41 µM | –
24 | Cc1noc(C)c1CSc1nc(C(C)(C)C)nc2c1c(=O)n(C)c(=O)n2C | > 10 µM | > 10 µM | –
25 | O=C(NCc1ccccc1OC1CCCC1)Nc1nnc(C2CC2)s1 | 7.55 µM | – | IC50 (HEPG2TOX_HILL_SLOPE 1.24, HEPG2TOX_R_SQUARED 0.927, PBLUC_HILL_SLOPE 4.07, PBLUC_R_SQUARED 0.516, read-out: LUCIFERASE INFECTION ASSAY - IC50): 4.4 µM
26 | CC(OC(=O)C1CCN(C(=O)c2ccc(Cl)cc2)CC1)C(=O)Nc1ccc([N+](=O)[O-])cc1C(F)(F)F (stereo unspecified) | > 10 µM | > 10 µM | –
27 | Clc1ccc(Sc2ncnc3ccsc23)cc1 | 9.97 µM | – | IC50 (PBLUC_HILL_SLOPE 15.3, PBLUC_R_SQUARED 0.133, read-out: LUCIFERASE INFECTION ASSAY - IC50): 8.63 µM
28 | CCCN1CCc2nc(Nc3ccc(Oc4ccccc4)cc3)ncc2C1 | > 9.16 µM | > 9.16 µM | –
29 | C=C(C)COc1ccc(-c2onc(C)c2-c2ccc(OC)c(OC)c2)c(O)c1 | 7.35 µM | 0.64 µM | –
30 | CC1(c2ccccc2)NC(=O)N(NC(=O)c2ccc(-c3ccccc3)cc2)C1=O (stereo unspecified) | > 10 µM | – | IC50 (PBLUC_HILL_SLOPE 2.29, PBLUC_R_SQUARED 0.368, read-out: LUCIFERASE INFECTION ASSAY - IC50): 6.98 µM
31 | Cc1ccc(-c2n[nH]c(=S)n2CCC(=O)NC(C)c2ccc(F)c(F)c2)cc1 (stereo unspecified) | > 10 µM | > 10 µM | –
32 | O=[N+]([O-])c1cnc(Sc2nnc(-c3ccco3)n2-c2ccc(OCc3ccccc3)cc2)s1 | > 6.91 µM | – | IC50 (FFLUC_HILL_SLOPE 16.1, FFLUC_R_SQUARED 0.469, read-out: LUCIFERASE INFECTION ASSAY - IC50): > 6.91 µM
33 | CCC(C)NC(=O)c1c(NC(=O)c2ccc(OC)cc2)nc2ccc(C)cn12 (stereo unspecified) | > 8.67 µM | – | IC50 (HEPG2TOX_HILL_SLOPE 1.94, HEPG2TOX_R_SQUARED 0.651, PBLUC_HILL_SLOPE 14.9, PBLUC_R_SQUARED 0.0352, read-out: LUCIFERASE INFECTION ASSAY - IC50): 7.7 µM
34 | N#C/C(=C(\Oc1ccccc1)C(F)(F)F)c1ccccc1 | 10.9 µM | – | IC50 (HEPG2TOX_HILL_SLOPE 4.45, HEPG2TOX_R_SQUARED 0.985, PBLUC_HILL_SLOPE 11.8, PBLUC_R_SQUARED 0.682, read-out: LUCIFERASE INFECTION ASSAY - IC50): 9.07 µM
35 | O=C(Nc1ccc(Cl)cc1)O/N=C(\Nc1ccc(OC(F)(F)F)cc1)c1c(Cl)cccc1Cl | > 6.36 µM | – | IC50 (PBLUC_HILL_SLOPE 0.408, PBLUC_R_SQUARED 0.392, read-out: LUCIFERASE INFECTION ASSAY - IC50): > 6.36 µM
36 | Cc1nn2c(SCC(=O)O)cc(C(C)(C)C)nc2c1-c1ccc(Cl)cc1 | > 8.46 µM | > 8.46 µM | –
37 | O=S(=O)(Nc1ccc(C(F)(F)F)cc1Cl)c1cc(C(F)(F)F)ccc1OCC(F)(F)F | 3.28 µM | – | IC50 (HEPG2TOX_HILL_SLOPE 1.76, HEPG2TOX_R_SQUARED 0.989, PBLUC_HILL_SLOPE 2.99, PBLUC_R_SQUARED 0.37, read-out: LUCIFERASE INFECTION ASSAY - IC50): 1.57 µM
38 | NC(Cc1ccccc1)c1csc(Nc2ccc(-c3ccccc3)nn2)n1 (stereo unspecified) | 5.82 µM | – | IC50 (PBLUC_HILL_SLOPE 170, PBLUC_R_SQUARED 0.669, read-out: LUCIFERASE INFECTION ASSAY - IC50): 5.74 µM
39 | Clc1ccc(-c2cnc3cnc(-c4ccsc4)cn23)cc1 | 8.06 µM | 2.46 µM | –
40 | CCOC(=O)N1C/C(=C/c2cccc(O)c2)C(=O)/C(=C/c2cccc(O)c2)C1 | 9.23 µM | – | IC50 (FFLUC_HILL_SLOPE 6.86, FFLUC_R_SQUARED 0.64, HEPG2TOX_HILL_SLOPE 2, HEPG2TOX_R_SQUARED 0.958, PBLUC_HILL_SLOPE 1.44, PBLUC_R_SQUARED 0.817, read-out: LUCIFERASE INFECTION ASSAY - IC50): 2.02 µM
41 | Cc1nnnn1/C(=C\c1ccccc1)C(=O)OCCOc1ccccc1Cl | > 10 µM | > 10 µM | –
42 | Cc1cc(-c2ccc(Cl)cc2)nc2c1c(C)nn2CCO | > 10 µM | 4.08 µM | –
43 | N=C(Nc1cc(Cl)cc(Cl)c1)Nc1ncc(C(=O)c2ccccc2O)cn1 | > 10 µM | – | IC50 (PBLUC_HILL_SLOPE 2.46, PBLUC_R_SQUARED 0.348, read-out: LUCIFERASE INFECTION ASSAY - IC50): 5.29 µM
